# pIC50: −log10 of the molar value. Where two headings read alike, the source gives them in different places.
# Columns and labels:
# Format in all cases: cell-based
# melanoma cells (A2058) = experiment: In vitro potency (CellTiter-Glo, 96 h) on A2058; conditions: Homo sapiens, A2058, 96 h, read-out: A2058 IC50
# Description: (§1) In vitro potency was assessed on multiple cancer cell lines. All cell lines were authenticated by STR profiling at IDEXX Bioresearch and cultured for no more than 2 months after resuscitation. Cells cultured in log-phase growth were seeded for 24 hours in 96-well plates containing […] RPMI 1640 supplemented with 20% FBS. Serial dilutions of antibody-drug conjugates in cell culture media were prepared at 4x working concentrations, and 50 μL of each dilution was added to the 96-well plates. Following addition of test articles, cells were incubated with test articles for 4 days at […]. After 96 hours, growth inhibition was assessed by CellTiterGlo® (Promega, Madison, WI) and luminescence was measured on a plate reader.
# (§2) Cell viability was determined by CellTiter-Glo staining after 96h exposure to ADC. ND=Not Determined. In the following tables, “Ex_” refers to a drug linker number. For example, “Ag4-Ex_4a” refers to a conjugate of an Ag4 antibody with drug linker 4a.
# [1] = test system: anaplastic large cell lymphoma cells (DEL); experiment: In vitro potency (CellTiter-Glo, 96 h) on DEL; conditions: 96 h, read-out: DEL IC50
# Description: as §1, §2
# [2] = test system: anaplastic large cell lymphoma cells (Karpas299); experiment: In vitro potency (CellTiter-Glo, 96 h) on Karpas299; conditions: Homo sapiens, KARPAS-299, 96 h, read-out: Karpas299 IC50
# Description: as §1, §2
# [3] = test system: breast cancer cells (MDA-MB-231); experiment: In vitro potency (CellTiter-Glo, 96 h) on MDA-MB-231; conditions: Homo sapiens, MDA-MB-231, 96 h, read-out: MDAMB 231 IC50
# Description: as §1, §2
# [4] = In vitro potency (CellTiter-Glo, 96 h) on Ls174T; conditions: Homo sapiens, LS174T, read-out: Ls174T IC50
# Description: as §1, §2
# [5] = test system: anaplastic large cell lymphoma cells (DELBVR); experiment: In vitro potency (CellTiter-Glo, 96 h) on DELBVR; conditions: 96 h, read-out: DELBVR IC50
# Description: as §1, §2
# [6] = test system: B-lymphocyte cancer cells (SU-DHL4); experiment: In vitro potency (CellTiter-Glo, 96 h) on SU-DHL4; conditions: Homo sapiens, SU-DHL-4, 96 h, read-out: SU-DHL-4 IC50
# Description: as §1, §2
# [7] = test system: Hodgkin's lymphoma cells (L540cy); experiment: In vitro potency (CellTiter-Glo, 96 h) on L540cy; conditions: L540cy, 96 h, read-out: L540cy IC50
# Description: as §1, §2
# [8] = test system: non-small-cell lung cancer cells (Calu1); experiment: In vitro potency (CellTiter-Glo, 96 h) on Calu1; conditions: Homo sapiens, Calu-1, 96 h, read-out: Calu1 IC50
# Description: as §1, §2
# [9] = test system: acute myeloid leukemia cells (MOLM-13); experiment: In vitro potency (CellTiter-Glo, 96 h) on MOLM-13; conditions: Homo sapiens, MOLM-13, 96 h, read-out: MOLM-13 IC50
# Description: as §1, §2
# [10] = test system: renal carcinoma cells (786-O); experiment: In vitro potency (CellTiter-Glo, 96 h) on 786-O; conditions: Homo sapiens, 786-0, 96 h, read-out: 786-O IC50
# Description: as §1, §2
# [11] = test system: pancreatic cancer cells (BxPC3); experiment: In vitro potency (CellTiter-Glo, 96 h) on BxPC3; conditions: Homo sapiens, BXPC-3, 96 h, read-out: BxPC3 IC50
# Description: as §1, §2
# [12] = CPT free drugs, CellTiter-Glo after 96 h exposure
Compound,pIC50 (melanoma cells (A2058); [12]),"pIC50 [1, 12]","pIC50 [2, 12]","pIC50 [3, 12]","pIC50 [4, 12]","pIC50 [5, 12]","pIC50 [6, 12]","pIC50 [7, 12]","pIC50 [9, 12]",pIC50 [1],pIC50 [2],pIC50 [10],pIC50 [3],pIC50 ([4]; 96 h),pIC50 [5],pIC50 [6],pIC50 [7],pIC50 [9],other results
CC[C@@]1(O)C(=O)OCc2c1cc1n(c2=O)Cc2c-1nc1cc(F)c(C)c(-c3ccco3)c1c2CN [Compound 6o],8.40,8.70,8.10,7.46,8.05,8.52,8.40,8.30,7.85,,,,,,,,,,"pIC50 [8, 12]: 7.59"
CC[C@@]1(O)C(=O)OCc2c1cc1n(c2=O)Cc2c-1nc1cc(F)c(C)c(-c3ccc(CO)s3)c1c2CN [Compound 6e],,,,,,,,,,,,,,,,,,,pIC50 [8]: 6.81
CC[C@@]1(O)C(=O)OCc2c1cc1n(c2=O)Cc2c-1nc1cc3c(cc1c2CNC1CCOC1)OCO3 (stereo partly shown) [Compound 7ah],,,,,,,,,,9.70,9.00,9.10,8.22,8.70,9.70,9.30,9.10,9.05,pIC50 (melanoma cells (A2058)): 9.30; pIC50 [8]: 8.00
CC[C@@]1(O)C(=O)OCc2c1cc1n(c2=O)Cc2c-1nc1cc(F)c(C)c(C#N)c1c2CN [Compound 16],,,,,,,,,,9.00,8.15,8.10,7.42,8.22,9.00,8.52,8.30,7.52,pIC50 (melanoma cells (A2058)): 8.52; pIC50 [8]: 7.17
"CC[C@@]1(O)C(=O)OCc2c1cc1n(c2=O)Cc2c-1nc1cc3c(cc1c2CNC(=O)CO)CCO3 [Compound 15c, (S)-N-((12-ethyl-12-hydroxy-8,11-dioxo-2,3,6,9,11,12-hexahydro-8H-furo [3,2 g]pyrano[3′,4′:6,7]indolizino[1,2-b]quinolin-5-yl)methyl)-2-hydroxyacetamide]",8.22,9.00,7.66,7.16,< 6.00,8.52,8.52,8.00,7.74,,,,,,,,,,"pIC50 [10, 12]: 7.66; pIC50 [8, 12]: 6.74"
CC[C@@]1(O)C(=O)OCc2c1cc1n(c2=O)Cc2c-1nc1cc3c(cc1c2CNCCOC)OCO3 [Compound 7ag],,,,,,,,,,9.52,9.00,9.05,8.05,8.52,9.52,9.10,9.05,8.70,pIC50 (melanoma cells (A2058)): 9.22; pIC50 [8]: 8.22
CC[C@@]1(O)C(=O)OCc2c1cc1n(c2=O)Cc2c-1nc1cc(F)c(C)c(C3=CCSCC3)c1c2CN [Compound 6m],8.15,8.70,7.92,7.42,7.66,8.22,8.30,8.10,8.15,,,,,,,,,,"pIC50 [8, 12]: 7.46"
CC[C@@]1(O)C(=O)OCc2c1cc1n(c2=O)Cc2c-1nc1cc(F)c(C)c(-c3ccoc3)c1c2CN [Compound 6p],8.70,9.05,8.52,8.00,8.30,8.70,9.00,8.70,8.52,,,,,,,,,,"pIC50 [8, 12]: 8.10"
CC[C@@]1(O)C(=O)OCc2c1cc1n(c2=O)Cc2c-1nc1cc(F)c(C)c(-c3cccs3)c1c2CN [Compound 6n],7.80,8.22,7.62,7.15,7.33,8.15,7.89,7.77,7.52,,,,,,,,,,"pIC50 [8, 12]: 7.25"
CC[C@@]1(O)C(=O)OCc2c1cc1n(c2=O)Cc2c-1nc1cc(F)c(SC)cc1c2CN [Compound 2at],7.70,7.96,7.42,7.68,7.52,8.10,7.64,8.40,6.58,,,,,,,,,,"pIC50 [10, 12]: 7.30; pIC50 [11, 12]: 7.08"
CC[C@@]1(O)C(=O)OCc2c1cc1n(c2=O)Cc2c-1nc1cc(F)c(C)c3c1c2[C@@H](NC(=O)CN)CC3 [Compound 13b],,9.00,7.96,7.52,7.24,8.40,8.70,8.22,7.64,,,,,,,,,,"pIC50 [10, 12]: 7.57; pIC50 [11, 12]: 7.68"
CC[C@@]1(O)C(=O)OCc2c1cc1n(c2=O)Cc2c-1nc1cc3c(cc1c2CNCCCN1CCN(C)CC1)OCO3 [Compound 7h],,,,,,,,,,8.30,7.24,7.36,7.17,7.40,8.22,7.68,7.64,7.03,pIC50 [11]: 7.37
CC[C@@]1(O)C(=O)OCc2c1cc1n(c2=O)Cc2c-1nc1cc3c(cc1c2CNCC(O)CN1CCOCC1)OCO3 (stereo partly shown) [Compound 7i],,,,,,,,,,8.05,7.08,6.93,6.74,6.96,7.77,7.49,7.32,6.74,pIC50 [11]: 7.24
CC[C@@]1(O)C(=O)OCc2c1cc1n(c2=O)Cc2c-1nc1cc(F)c(C)c(Cl)c1c2CNC(=O)CN [Compound 13a],,,,,,,,,,9.52,9.00,8.22,8.30,7.36,9.00,9.00,9.00,8.70,pIC50 [11]: 8.30
CC[C@@]1(O)C(=O)OCc2c1cc1n(c2=O)Cc2c-1nc1cc3c(cc1c2CNC[C@@H](O)CN1CCCCC1)OCO3 [Compound 7z],,,,,,,,,,7.77,6.82,6.91,6.51,7.10,7.80,7.41,7.32,6.84,pIC50 [11]: 6.90
"C=Cc1c(C)c(F)cc2nc3c(c(CN)c12)Cn1c-3cc2c(c1=O)COC(=O)[C@]2(O)CC [Compound 2am, (S)-11-(aminomethyl)-4-ethyl-8-fluoro-4-hydroxy-9-methyl-10-vinyl-1,12-dihydro-14H-pyrano[3′,4′:6,7]indolizino[1,2-b]quinoline-3,14(4H)-dione]",,,,,,,,,,9.52,8.70,8.70,8.30,8.30,9.52,9.00,9.00,8.70,pIC50 [11]: 8.40
C/C=C/c1c(C)c(F)cc2nc3c(c(CN)c12)Cn1c-3cc2c(c1=O)COC(=O)[C@]2(O)CC [Compound 2aj],,9.52,8.70,8.30,8.30,9.52,9.00,9.00,9.00,,,,,,,,,,"pIC50 [10, 12]: 8.70; pIC50 [11, 12]: 8.52"

# From patent publication US20230381321A1, “CAMPTOTHECIN CONJUGATES” (priority 2022, published 2023)
